Reference: patent publication US20100022568A1, “ENDOTHELIN RECEPTOR ANTAGONISTS FOR EARLY STAGE IDIOPATHIC PULMONARY FIBROSIS” (Actelion Pharmaceeuticals Ltd., priority 2006, published 2010)
Entries after “also recorded” stand apart in the source; their conditions may differ. Where two headings read alike, the source gives them in different places. Square brackets hold non-standard residues; d marks the D form. Peptide text beside a SMILES is read from it.

Columns and labels:
diabetic rat kidney = details: cited from earlier work
[1] = system: Swiss 3T3 mouse embryonic fibroblasts; assay: cells
Experimental: Experiments were performed on the mouse embryonic fibroblast cell line Swiss 3T3 (Deutsche Sammlung fur Mikroorganismen und Zellen, DSMZ ACC 173). Cells were starved for 24 h in serum-free medium or medium containing 0.5% serum followed by a 24 h incubation with endothelin-1 at a concentration giving approximately 50% or preferably 80% of its maximal efficacy, in presence either of vehicle or of an antagonist at increasing concentrations or an antagonist in combination with Pirfenidone.
Potential cytotoxic effects are excluded by assessing fibroblast proliferation using the MTS reagent (21). Collagen neo-synthesis by fibroblasts is assessed by measuring ^3H-proline incorporation (22).
Using a concentration of ET-1 of 1 nM (EC80), the below mentioned endothelin receptor antagonists were analyzed for antagonistic activity on ET-1-induced collagen neo-synthesis.

patients with IPF = assay: BUILD-1 clinical study (phase II/III, placebo-controlled) in IPF patients; format: in vivo, human
From the text: BUILD 1 study was a multicentric, randomized, double-blind, placebo-controlled, phase II/III study in IPF patients. […] Treatment failure was defined either as worsening of PFTs or the occurrence of an acute decompensation of IPF. PFT worsening was defined as 2 out of the following 3 criteria • Decrease from baseline ≧10% in Forced vital capacity (FVC) • Decrease from baseline ≧15% in diffusion capacity for carbon monoxide (DLCO). • Decrease from baseline ≧4% in O2 saturation (blood gas) at rest or increase from baseline ≧8 mmHg in alveolar capillary O2 gradient (A-a PO2).
Main inclusion criteria: proven IPF diagnosis <3 years duration, either via a surgical lung biopsy or when not done according to the ATS/ERS consensus criteria (see above). The main inclusion criteria were the presence of FVC ≧50% of predicted value and DLCO ≧30% of predicted value.
The planned treatment period 1 was 12 months. Patients were evaluated at regular interval up to End-of-Period 1 (Month 12 months) and up to the End-of-Study i.e. when the last patient has his/her last visit. The 6MWT and pulmonary function tests were evaluated at each visit.
The analyses were run by a single radiologist who was blinded to the group allocation. Each patient CT was scored for honeycomb as well as ground-glass from the 3 zones of each lung namely upper mid and lower zone. Increment for HC and ground-glass was rounded to the upper 5%.

cell cultures = details: cited from earlier work
[2] = system: various animal models of fibrosis; details: cited from earlier work
human fibroblasts = details: cited from earlier work
[3] = system: norepinephrine-induced aortic remodeling and fibrosis; details: cited from earlier work
rat mesangial cells = details: cited from earlier work
[4] = Mus musculus, Swiss-3T3, read-out: IC50 on ET-1-induced collagen neo-synthesis in 3T3 fibroblasts
[5] = patients with surgical lung biopsy, N = 49

SMILES: CC(C)C[C@H](NC(=O)N1CCCCCC1)C(=O)N[C@H](Cc1cn(C)c2ccccc12)C(=O)N[C@H](Cc1ccccn1)C(=O)O [FR1 39317]
- Expression of collagen, laminin and TGF-β mRNA (diabetic rat kidney): attenuated

SMILES: CC[C@H](C)[C@H](NC(=O)[C@H](CC(=O)O)NC(=O)[C@H](CC(C)C)NC(=O)[C@H](Cc1c[nH]cn1)NC(=O)[C@@H]1CSSC[C@H](N)C(=O)N[C@@H](CO)C(=O)N[C@H]2CSSC[C@H](NC(=O)[C@H](CCC(=O)O)NC(=O)[C@H](CCCCN)NC(=O)[C@H](CC(=O)O)NC(=O)[C@H](CCSC)NC(=O)[C@H](CC(C)C)NC(=O)[C@H](CO)NC(=O)[C@H](CO)NC2=O)C(=O)N[C@@H](C(C)C)C(=O)N[C@@H](Cc2ccc(O)cc2)C(=O)N[C@@H](Cc2ccccc2)C(=O)N1)C(=O)N[C@H](C(=O)N[C@@H](Cc1c[nH]c2ccccc12)C(=O)O)[C@@H](C)CC [ET-1, endothelin-1]
- EC50 ([1]; read-out: EC50 (concentration of ET-1 giving 50% of maximal effect) on collagen neo-synthesis, Swiss 3T3 fibroblasts, 24 h incubation): 0.24 nM

SMILES: COc1ccccc1Oc1c(NS(=O)(=O)c2ccc(C(C)(C)C)cc2)nc(-c2ncccn2)nc1OCCO [Bosentan]
- IC50 [1, 4]: 214 nM
- Effect on ET-1-induced collagen synthesis ([1]; bosentan 1 μM alone, 24 h): reverses ET-1 -induced collagen synthesis to baseline
- Secondary endpoints related to death or disease worsening (patients with IPF; BUILD-1, IPF patients): showed efficacy
- PFT score: occurrence of death or treatment failure at End-of-Period 1 (patients with IPF; all treated (n=71 bosentan), placebo 36.1%): 22.5%
- Primary endpoint: exercise capacity (6MWT) at End-of-Period 1 (patients with IPF; all treated, bosentan target 125 mg b.i.d., 12 months): did not show an effect; also recorded: did not show improvement
- PFTs scores at end of period 1: Improved (number of patients) (patients with IPF; [5]): 2
- PFTs scores at end of period 1: Worsened (number of patients) (patients with IPF; [5]): 6
- PFTs scores at end of period 1: Improved (percent of patients) (patients with IPF; patients with surgical lung biopsy, N = 49, 95% CL 0.5%, 14.0%, p 0.2424): 4.1%
- PFTs scores at end of period 1: Worsened (percent of patients) (patients with IPF; patients with surgical lung biopsy, N = 49, 95% CL 4.6%, 24.8%): 12.2%
- Prevention of clinical worsening in IPF patients with early disease with low or no honeycomb on HRCT lung scans (patients with IPF; post hoc analysis of BUILD 1 HRCT scans): mainly effective
- Collagen synthesis (cell cultures): decreases
- Collagenase expression (cell cultures): increases
- Extracellular matrix deposition (cell cultures): inhibits
- NF-κB expression (cell cultures): reduces
- Anti-fibrotic activity in vivo [2]: potent anti-fibrotic agent
- Ability to contract a collagen matrix (human fibroblasts; cell cultures): reduced
- Matrix metalloprotease-1 (collagenase) production (human fibroblasts; cell cultures): increased
- Fibroblast proliferation induced by ET-1 (human fibroblasts; human fibroblasts): attenuated

SMILES: COC(c1ccccc1)(c1ccccc1)[C@H](Oc1nc(C)cc(C)n1)C(=O)O [Ambrisentan]
- IC50 [1, 4]: 79 nM

SMILES: COc1cc(OC)nc(O[C@H](C(=O)O)C(OC)(c2ccccc2)c2ccccc2)n1 [Darusentan]
- IC50 [1, 4]: 221 nM
- Accumulation of collagen [3]: decreased

SMILES: Cc1ccc(=O)n(-c2ccccc2)c1 [pirfenidone]
- inhibition at 1000 µM ([1]; Mus musculus, Swiss-3T3, 24 h, read-out: Inhibitory effect on collagen neo-synthesis): 55%

SMILES: CC(C)C[C@@H]1NC(=O)[C@@H](C(C)C)NC(=O)[C@@H]2CCCN2C(=O)[C@@H](CC(=O)O)NC(=O)[C@@H](Cc2c[nH]c3ccccc23)NC1=O [BQ-123] (cyclo(L[dW][dD]P[dV]))
- Fibronectin synthesis induced by ET-1 or angiotensin II (rat mesangial cells): decreased

SMILES: Cc1cc2c(cc1CC(=O)c1sccc1S(=O)(=O)Nc1onc(C)c1Cl)OCO2 [Sitaxsentan]
- IC50 [1, 4]: 369 nM

SMILES: CC(=O)c1cc(C)cc(C)c1NC(=O)c1sccc1S(=O)(=O)Nc1onc(C)c1C [TBC3711]
- IC50 ([1]; read-out: IC50 on ET-1-induced collagen neo-synthesis in 3T3 fibroblasts, ET-1 1 nM (EC80), n >= 2): 59 nM

SMILES: CCCNS(=O)(=O)Nc1ncnc(OCCOc2ncc(Br)cn2)c1-c1ccc(Br)cc1 [Compound 1, propyl-sulfamic acid {5-(4-bromo-phenyl)-6-[2-(5-bromo-pyrimidin-2-yloxy)-ethoxy]-pyrimidine-4-yl}-amide]
- IC50 [1, 4]: 114 nM

SMILES: COc1ccccc1Oc1c(NS(=O)(=O)c2ccc(C)cn2)nc(-c2ccncc2)nc1OC [Avosentan]
- IC50 [1, 4]: 330 nM
